Laboratory results: patent US20070049564A1 (Wyeth, priority 2005, published 2007)
Where two headings read alike, the source gives them in different places.

How the values were obtained:
E. coli = assay: Range of MIC for E. coli strains; conditions: Escherichia coli
S. aureus GC 4536 = assay: MIC, broth microdilution; conditions: Staphylococcus aureus
Protocol: (§1) Antimicrobial susceptibility testing. The in vitro activities of the antibiotics are determined by the broth microdilution method as recommended by the National Committee for Clinical Laboratory Standards (NCCLS) (1). Mueller-Hinton II broth (MHBII)(BBL Cockeysville, Md.) is the medium employed in the testing procedures. Microtiter plates containing serial dilutions of each antimicrobial agent are inoculated with each organism to yield the appropriate density (10^5 CFU/ml) in a 100 μl final volume. The plates are incubated for 18-22 hours at 35° C. in ambient air.
(§2) Representative compounds were first incubated in mouse serum for an hour prior to the in vitro testing against a panel of selected gram-positive and gram-negative bacteria strains. All compounds were also pre-incubated in water for an hour prior to testing as control. Representative compounds of Formula I were incubated in human serum prior to MIC determination.

E. faecium GC 2243 = assay: MIC, broth microdilution; conditions: Enterococcus faecium
S. aureus GC 6469 = assay: MIC, broth microdilution; conditions: Staphylococcus aureus
S. pneumoniae+ GC 4465 = assay: MIC, broth microdilution; conditions: Streptococcus pneumoniae
E. faecalis GC 2265 = assay: MIC, broth microdilution; conditions: Enterococcus faecalis
S. agalactiae GC 4564 = assay: MIC, broth microdilution; conditions: Streptococcus agalactiae
Protocol: as §1, §2

E. faecalis GC 2242 = assay: MIC, broth microdilution; conditions: Enterococcus faecalis
S. aureus GC 6335 = assay: MIC, broth microdilution; conditions: Staphylococcus aureus
E. coli GC 3226 = assay: MIC, broth microdilution; conditions: Escherichia coli
E. coli GC 1073 = assay: MIC, broth microdilution; conditions: Escherichia coli
Protocol: as §1, §2

E. coli GC 2270 = assay: MIC, broth microdilution; conditions: Escherichia coli
P. aeruginosa GC 2214 = assay: MIC, broth microdilution; conditions: Pseudomonas aeruginosa
E. coli GC 2271 = assay: MIC, broth microdilution; conditions: Escherichia coli
S. aureus GC 2216 = assay: MIC, broth microdilution; conditions: Staphylococcus aureus
S. pyogenes GC 4563 = assay: MIC, broth microdilution; conditions: Streptococcus pyogenes
c. albicans GC 3066 = assay: MIC, broth microdilution
E. coli GC 4559 = assay: MIC, broth microdilution; conditions: Escherichia coli
E. coli GC 2232 = assay: MIC, broth microdilution; conditions: Escherichia coli

CC(C)COC(=O)N(CC(=O)Nc1cc(N(C)C)c2c(c1O)C(=O)C1=C(O)[C@]3(O)C(=O)C(C(N)=O)=C(O)[C@@H](N(C)C)[C@@H]3C[C@@H]1C2)C(C)(C)C [Example 59, isobutyl 2-{[(5aR,6aS,7S,10aS)-9-(aminocarbonyl)-4,7-bis(dimethylamino)-1,8,10a,11-tetrahydroxy-10,12-dioxo-5,5a,6,6a,7,10,10a,12-octahydrotetracen-2-yl]amino}-2-oxoethyl(tert-butyl)carbamate]
4 µg/mL: MIC (S. aureus GC 4536; GC4536, read-out: MINIMAL INHIBITORY CONCENTRATION MIC, Human Serum) | MIC (S. aureus GC 4536; GC4536, read-out: MINIMAL INHIBITORY CONCENTRATION MIC, Mouse Serum) | MIC (S. aureus GC 4536; GC4536, read-out: MINIMAL INHIBITORY CONCENTRATION MIC, Water) | MIC (E. faecium GC 2243; GC2243, read-out: MINIMAL INHIBITORY CONCENTRATION MIC, Mouse Serum) | MIC (E. faecium GC 2243; GC2243, read-out: MINIMAL INHIBITORY CONCENTRATION MIC, Water) | MIC (S. aureus GC 6469; GC6469, read-out: MINIMAL INHIBITORY CONCENTRATION MIC, Human Serum) | MIC (S. aureus GC 6469; GC6469, read-out: MINIMAL INHIBITORY CONCENTRATION MIC, Mouse Serum) | MIC (S. aureus GC 6469; GC6469, read-out: MINIMAL INHIBITORY CONCENTRATION MIC, Water) | MIC (S. pneumoniae+ GC 4465; read-out: MINIMAL INHIBITORY CONCENTRATION MIC, Mouse Serum) | MIC (E. faecalis GC 2265; GC2265, read-out: MINIMAL INHIBITORY CONCENTRATION MIC, Human Serum) | MIC (E. faecalis GC 2265; GC2265, read-out: MINIMAL INHIBITORY CONCENTRATION MIC, Mouse Serum) | MIC (E. faecalis GC 2265; GC2265, read-out: MINIMAL INHIBITORY CONCENTRATION MIC, Water) | MIC (E. faecalis GC 2242; GC2242, read-out: MINIMAL INHIBITORY CONCENTRATION MIC, Human Serum) | MIC (E. faecalis GC 2242; GC2242, read-out: MINIMAL INHIBITORY CONCENTRATION MIC, Water) | MIC (S. aureus GC 6335; GC6335, read-out: MINIMAL INHIBITORY CONCENTRATION MIC, Human Serum) | MIC (S. aureus GC 6335; GC6335, read-out: MINIMAL INHIBITORY CONCENTRATION MIC, Mouse Serum) | MIC (S. aureus GC 6335; GC6335, read-out: MINIMAL INHIBITORY CONCENTRATION MIC, Water) | MIC (S. aureus GC 2216; GC2216, read-out: MINIMAL INHIBITORY CONCENTRATION MIC, Human Serum) | MIC (S. aureus GC 2216; GC2216, read-out: MINIMAL INHIBITORY CONCENTRATION MIC, Mouse Serum) | MIC (S. aureus GC 2216; GC2216, read-out: MINIMAL INHIBITORY CONCENTRATION MIC, Water) | MIC (S. pyogenes GC 4563; GC4563, read-out: MINIMAL INHIBITORY CONCENTRATION MIC, Human Serum) | MIC (S. pyogenes GC 4563; GC4563, read-out: MINIMAL INHIBITORY CONCENTRATION MIC, Mouse Serum) | MIC (S. pyogenes GC 4563; GC4563, read-out: MINIMAL INHIBITORY CONCENTRATION MIC, Water)
> 64 µg/mL: MIC (E. coli; read-out: Minimum inhibitory concentration (MIC), E. coli (Human Serum)) | MIC (E. coli; read-out: Minimum inhibitory concentration (MIC), E. coli (water)) | MIC (E. coli; read-out: Range of MIC, E. coli (Water)) | MIC (E. coli GC 3226; GC3226, read-out: MINIMAL INHIBITORY CONCENTRATION MIC, Human Serum) | MIC (E. coli GC 3226; GC3226, read-out: MINIMAL INHIBITORY CONCENTRATION MIC, Mouse Serum) | MIC (E. coli GC 3226; GC3226, read-out: MINIMAL INHIBITORY CONCENTRATION MIC, Water) | MIC (E. coli GC 1073; GC1073, read-out: MINIMAL INHIBITORY CONCENTRATION MIC, Human Serum) | MIC (E. coli GC 1073; GC1073, read-out: MINIMAL INHIBITORY CONCENTRATION MIC, Mouse Serum) | MIC (E. coli GC 1073; GC1073, read-out: MINIMAL INHIBITORY CONCENTRATION MIC, Water) | MIC (E. coli GC 2270; GC2270, read-out: MINIMAL INHIBITORY CONCENTRATION MIC, Human Serum) | MIC (E. coli GC 2270; GC2270, read-out: MINIMAL INHIBITORY CONCENTRATION MIC, Mouse Serum) | MIC (E. coli GC 2270; GC2270, read-out: MINIMAL INHIBITORY CONCENTRATION MIC, Water) | MIC (P. aeruginosa GC 2214; GC2214, read-out: MINIMAL INHIBITORY CONCENTRATION MIC, Human Serum) | MIC (P. aeruginosa GC 2214; GC2214, read-out: MINIMAL INHIBITORY CONCENTRATION MIC, Mouse Serum) | MIC (P. aeruginosa GC 2214; GC2214, read-out: MINIMAL INHIBITORY CONCENTRATION MIC, Water) | MIC (E. coli GC 2271; GC2271, read-out: MINIMAL INHIBITORY CONCENTRATION MIC, Human Serum) | MIC (E. coli GC 2271; GC2271, read-out: MINIMAL INHIBITORY CONCENTRATION MIC, Mouse Serum) | MIC (E. coli GC 2271; GC2271, read-out: MINIMAL INHIBITORY CONCENTRATION MIC, Water) | MIC (c. albicans GC 3066; Candida albicans, GC3066, read-out: MINIMAL INHIBITORY CONCENTRATION MIC) | MIC (E. coli GC 4559; GC4559, read-out: MINIMAL INHIBITORY CONCENTRATION MIC, Human Serum) | MIC (E. coli GC 4559; GC4559, read-out: MINIMAL INHIBITORY CONCENTRATION MIC, Water) | MIC (E. coli GC 2232; GC2232, read-out: MINIMAL INHIBITORY CONCENTRATION MIC, Human Serum) | MIC (E. coli GC 2232; GC2232, read-out: MINIMAL INHIBITORY CONCENTRATION MIC, Mouse Serum) | MIC (E. coli GC 2232; GC2232, read-out: MINIMAL INHIBITORY CONCENTRATION MIC, Water)
>64 UG/ML: MINIMAL INHIBITORY CONCENTRATION MIC (c. albicans GC 3066; Human Serum) | MINIMAL INHIBITORY CONCENTRATION MIC (c. albicans GC 3066; Mouse Serum)
8 µg/mL: MIC (E. faecium GC 2243; GC2243, read-out: MINIMAL INHIBITORY CONCENTRATION MIC, Human Serum) | MIC (S. pneumoniae+ GC 4465; read-out: MINIMAL INHIBITORY CONCENTRATION MIC, Human Serum) | MIC (S. pneumoniae+ GC 4465; read-out: MINIMAL INHIBITORY CONCENTRATION MIC, Water) | MIC (S. agalactiae GC 4564; GC4564, read-out: MINIMAL INHIBITORY CONCENTRATION MIC, Human Serum) | MIC (S. agalactiae GC 4564; GC4564, read-out: MINIMAL INHIBITORY CONCENTRATION MIC, Mouse Serum) | MIC (S. agalactiae GC 4564; GC4564, read-out: MINIMAL INHIBITORY CONCENTRATION MIC, Water)
2 µg/mL: MIC (E. faecalis GC 2242; GC2242, read-out: MINIMAL INHIBITORY CONCENTRATION MIC, Mouse Serum)
64 µg/mL: MIC (E. coli GC 4559; GC4559, read-out: MINIMAL INHIBITORY CONCENTRATION MIC, Mouse Serum)
